Assay results reported in US5459158A, “Pharmaceutical compositions of indazoles and methods of use thereof” (priority 1992, dated 1995).
Read-outs that look alike come from different tables or passages of the source.

Columns and labels:
[1] = target: T1, rat cerebellar nitric oxide synthase (NOS) (Rattus norvegicus, UniProt P29476); assay: inhibition of rat cerebellar nitric oxide synthase (NOS); type: biochemical
T1 construct: from tissue
Description: Nitric oxide synthase (NOS) activity was determined in vitro by the method of Dwyer et al., Biochem. Biophys. Res. Commun. 1991, 176, 1136-1141. Mice (male, LACA, 28-32 g) were killed by cervical dislocation. Cerebella were removed, homogenized (1-10 w/v in 20 mM Tris buffer containing 2 mM EDTA, pH. 7.4) and aliquots (25 μl) incubated (37° C.) with L-arginine (120 nM) containing 0.5 μCi [^3 H]-arginine (specific activity 62 Ci mmol^-1), NADPH (0.5 mM) and CaCl2 (0.75 mM). […] Final incubation volume was 105 μl. After 15 minutes the reaction was stopped by addition of 3 ml HEPES buffer (20 mM containing 2 mM EDTA, pH 5.5) and the [^3 H]-citrulline produced was separated by cation exchange chromatography on 0.5 ml columns of Dowex AG50-W8 Na^+ form. [^3 H]-Citrulline was quantitated by liquid scintillation spectroscopy of duplicate 1 ml aliquots of the flow-through.

mice = assay: anti-nociceptive activity, formalin-induced hindpaw licking assay; type: in vivo, mouse; conditions: for Inhibition of licking (%): 50 mg kg^-1 i.p., late phase
Description: Control animals received 10 ml kg^-1 of arachis oil or saline (0.9% w/v NaCl).
The percentage inhibition of formalin-induced licking in the late phase following the administration of 50 mg kg^-1 i.p. of the indazoles is shown in the Table below.

mouse cerebellar NOS [2] = target: T2, mouse cerebellar NOS (Mus musculus, UniProt Q9Z0J4); assay: inhibition of mouse cerebellar nitric oxide synthase (NOS) activity in vitro; type: biochemical; conditions: for IC50: mouse cerebella homogenate, 15 minutes, 37° C., mean ± s.e. mean, n=6
T2 construct: Cerebella were removed, homogenized; from tissue; host or cells: cerebellum of male LACA mice, crude homogenate
T2 sequence (Q9Z0J4 whole entry): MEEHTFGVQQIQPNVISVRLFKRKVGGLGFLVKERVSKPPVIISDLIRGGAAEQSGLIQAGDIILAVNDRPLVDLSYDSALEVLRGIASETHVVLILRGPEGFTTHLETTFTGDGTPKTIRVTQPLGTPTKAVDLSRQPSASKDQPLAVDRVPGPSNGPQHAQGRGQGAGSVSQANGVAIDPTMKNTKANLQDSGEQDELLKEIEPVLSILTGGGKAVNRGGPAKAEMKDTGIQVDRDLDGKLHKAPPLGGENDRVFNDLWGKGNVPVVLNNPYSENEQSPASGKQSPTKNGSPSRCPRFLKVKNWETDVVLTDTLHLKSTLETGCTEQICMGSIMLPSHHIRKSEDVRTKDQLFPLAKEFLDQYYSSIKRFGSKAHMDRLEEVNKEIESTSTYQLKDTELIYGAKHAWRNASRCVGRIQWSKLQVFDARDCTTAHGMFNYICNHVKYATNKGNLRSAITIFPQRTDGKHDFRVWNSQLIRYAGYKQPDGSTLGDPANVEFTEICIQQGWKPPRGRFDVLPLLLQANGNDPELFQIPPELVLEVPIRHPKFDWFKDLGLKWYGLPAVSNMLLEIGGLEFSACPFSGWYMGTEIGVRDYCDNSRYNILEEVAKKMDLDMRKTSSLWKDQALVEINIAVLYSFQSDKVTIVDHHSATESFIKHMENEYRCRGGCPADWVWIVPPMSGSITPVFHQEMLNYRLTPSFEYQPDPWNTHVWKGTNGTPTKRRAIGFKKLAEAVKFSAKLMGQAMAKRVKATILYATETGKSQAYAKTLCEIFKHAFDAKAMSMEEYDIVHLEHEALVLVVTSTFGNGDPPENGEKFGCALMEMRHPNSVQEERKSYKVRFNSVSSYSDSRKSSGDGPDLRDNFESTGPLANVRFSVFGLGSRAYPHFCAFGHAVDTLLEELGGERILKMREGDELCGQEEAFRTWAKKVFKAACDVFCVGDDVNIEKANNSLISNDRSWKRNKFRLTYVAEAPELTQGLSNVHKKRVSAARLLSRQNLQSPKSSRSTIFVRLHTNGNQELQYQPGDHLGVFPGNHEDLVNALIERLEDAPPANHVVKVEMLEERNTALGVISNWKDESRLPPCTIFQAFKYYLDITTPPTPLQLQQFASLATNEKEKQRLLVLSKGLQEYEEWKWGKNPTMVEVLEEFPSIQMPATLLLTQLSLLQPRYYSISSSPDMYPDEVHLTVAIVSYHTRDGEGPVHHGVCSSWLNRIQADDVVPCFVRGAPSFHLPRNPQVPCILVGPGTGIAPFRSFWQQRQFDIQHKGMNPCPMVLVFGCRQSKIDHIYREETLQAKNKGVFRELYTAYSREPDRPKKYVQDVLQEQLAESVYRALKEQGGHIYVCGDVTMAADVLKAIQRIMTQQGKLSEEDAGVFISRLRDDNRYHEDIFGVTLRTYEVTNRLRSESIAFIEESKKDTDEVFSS

mouse cerebellar NOS [3] = target: T2, mouse cerebellar NOS; assay: mouse cerebellar NOS activity after i.p. administration (ex vivo); type: in vivo; conditions: n=6, P<0.01
Description: Nitric oxide synthase (NOS) activity was determined in vitro by the method of Dwyer et al., Biochem. Biophys. Res. Commun. […] Mice (male, LACA, 28-32 g) were killed by cervical dislocation. […] Final incubation volume was 105 μl. After 15 minutes the reaction was stopped by addition of 3 ml HEPES buffer (20 mM containing 2 mM EDTA, pH 5.5) and the [^3 H]-citrulline produced was separated by cation exchange chromatography on 0.5 ml columns of Dowex AG50-W8 Na^+ form. [^3 H]-Citrulline was quantitated by liquid scintillation spectroscopy of duplicate 1 ml aliquots of the flow-through.
Cerebella were removed, homogenized and NOS activity determined as described above.

[4] = blood pressure (MAP) of urethane-anaesthetized mice; type: in vivo, mouse; conditions: for mean arterial pressure (MAP): n=4
nitric oxide synthase = conditions: Moore et al., British Journal of Pharmacology, 1991, 102, 198-202; cited from earlier work
[5] = rat cerebella, read-out: IC50 NOS
[6] = ratio of IC50 on mouse cerebellar NOS in vitro

SMILES: O=[N+]([O-])c1ccc2[nH]nc(Cl)c2c1 [3-chloro-5-nitroindazole]
- IC50 [1, 5]: 177 µM

SMILES: Clc1n[nH]c2ccccc12 [3-chloroindazole]
- IC50 [1, 5]: 100 µM

SMILES: O=[N+]([O-])c1ccc2[nH]ncc2c1 [5-nitroindazole]
- IC50 [1, 5]: 56 µM

SMILES: O=[N+]([O-])c1ccc2cn[nH]c2c1 [6-nitroindazole]
- Inhibition of licking (%) (mice): 67.0 ± 12.0%
- IC50 [1, 5]: 32 µM

SMILES: O=[N+]([O-])c1cccc2cn[nH]c12 [7-nitroindazole]
- IC50 (mouse cerebellar NOS [2]): 0.47 ± 0.01 µM
- times more potent than L-NAME (mouse cerebellar NOS [2]; [6]): 1.8 times
- times more potent than L-NMMA (mouse cerebellar NOS [2]; [6]): 5 times
- decrease of mouse cerebellar NOS activity (mouse cerebellar NOS [3]; 25 mg kg^-1, i.p., 15 minutes thereafter): over 55%
- mouse cerebellar NOS activity (mouse cerebellar NOS [3]; 25 mg kg^-1, i.p., 15 minutes, cf 9.1±0.26 arachis oil-injected controls): 3.9±0.06 nmol citrulline mg^-1 protein 15 min^-1
- Inhibition of licking (%) (mice): 100%
- early phase response of formalin-induced hindpaw licking (in words) (mice; 10, 25 and 50 mg kg^-1 i.p., early phase (0-5 minutes)): without influencing the early phase response
- inhibition of late phase formalin-induced hindpaw licking (in words) (mice; 10, 25 and 50 mg kg^-1 i.p., late phase (15-30 minutes)): dose-related inhibition of late phase formalin-induced hindpaw licking
- ED50 for the anti-nociceptive effect (mice; i.p., mice): 26 mg/kg
- ED50 for the anti-nociceptive effect (equivalent) (mice; i.p., mice, converted from 26 mg kg^-1): 159.5 µmol/kg
- mean arterial pressure (MAP) ([4]; 25 mg kg^-1 i.p., cf 51.6±4.4 before administration): 47.4±5.1 mmHg
- mean arterial pressure (MAP) ([4]; 80 mg kg^-1 i.p., cf 49.5±2.9 before administration): 43.9±5.3 mmHg
- mean arterial pressure (MAP), change in words ([4]; 25 and 80 mg kg^-1 i.p., over 45 minutes): did not increase mean arterial pressure

SMILES: COC(=O)[C@@H](N)CCCNC(=N)N[N+](=O)[O-] [L-NAME, L-N^G -nitroarginine methyl ester, reference compound]
- IC50 (mouse cerebellar NOS [2]): 0.87 ± 0.02 µM
- mouse cerebellar NOS activity (mouse cerebellar NOS [3]; 50 mg kg^-1, i.p., 15 minutes, cf 8.33±0.15 saline-injected controls): 4.46±0.012 pmol citrulline mg^-1 protein 15 min^-1
- inhibition at 50 mg/kg (mouse cerebellar NOS [3]; mouse, ip, 50 mg kg^-1, i.p., 15 minutes): 46.2 ± 1.6%
- block of nitric oxide synthase in brain and peripherally (nitric oxide synthase): blocks this enzyme not only in the brain but also peripherally

SMILES: CNC(=N)NCCC[C@H](N)C(=O)O [L-NMMA, L-N^G -monomethyl arginine, reference compound]
- IC50 (mouse cerebellar NOS [2]): 2.37 ± 0.03 µM

SMILES: c1ccc2[nH]ncc2c1 [indazole]
- Inhibition of licking (%) (mice): 83.2 ± 12.2%
- IC50 [1]: 232 µM
